In series [1] the target is T1, human metabotropic glutamate receptor 2 (mGluR2) (Homo sapiens, UniProt Q14416).
T1 construct: expressed in transfected cells; host or cells: CHO-K1
Nature of the series: Binding Assay (mGluR2 GTPγ35S assay). The class given is biochemical. Conditions: membranes from CHO-K1 cells expressing human mGluR2; L-glutamate and GTPγ35S stimulation, 45 minutes, SPA. On the procedure: This assay was developed to measure the agonist and/or positive allosteric modulator (PAM) activity of compounds at the human metabotropic glutamate receptor 2 (mGluR2).
Crude membranes were prepared from CHO-K1 cells expressing human mGluR2 and stored at −80° C. in aliquots in 2 mg/mL concentrations using a previously described method Fenge et al., Cytotechnology 38 (2002). Assay buffer is defined as 0.22 μM filtered water containing 50 mM HEPES (Teknova), 10 mM MgCl2 (Teknova), 50 mM NaCl (Teknova), 100 μM DTT (Sigma 43819), pH 7.4. Membrane solution containing membranes, beads, and GDP diluted in assay buffer was prepared in excess and incubated for 15 to 30 minutes at room temperature (25° C.). Membrane solution was prepared in a per-well ratio of 1.8 μg membranes, 225 μg PVT-WGA SPA beads (Perkin Elmer RPNQ0001), 3.3 μM GDP (Sigma G7127) in assay buffer to a final per-well volume of 180 μl. Stimulation buffer was prepared by diluting L-glutamate to 10 μM and GTPγ^35S to 1 nM in assay buffer. […] 20 μL of stimulation buffer was then added to individual wells, plates were sealed, incubated on a shaker at room temperature for 45 minutes, centrifuged at 1000 RPM for 5 minutes and then assessed using a ^35S SPA Program (1 minute read time. Low Background Paralux) on a MicroBeta instrument (PerkinElmer, Waltham, Massachusetts).

Series [2] in a line: Pharmacokinetics after intravenous bolus in rats. Type of series: in vivo. Conditions: male Wistar rat, nominal dose 1.0 mg/kg, plasma. On the procedure: The animals were single dosed via intravenous (IV) bolus to tail vein over approximately 5 seconds. The animals were not fasted prior to dosing. The single dose formulation samples were collected from middle of formulation and stored at 5±3° C. for potential analysis. Animals were evaluated during in-life phase.
The blood samples were centrifuged at 2000 g for 5 minutes at 4° C. to obtain plasma. Plasma samples were stored in polypropylene tubes, quickly frozen in ice box and kept at −80° C. Plasma samples were deprotainated by solvent precipitation. Concentration of Compounds A and D in plasma and tissue samples were analyzed using a LC-MS/MS method. WinNonlin version 6.2 will be used for pharmacokinetic parameters calculations. AUC was calculated using log trapezoidal method.

Series [3] in a line: Compound turnover and metabolite formation in human hepatocytes with or without CYP3A inhibitor ketoconazole. Type of series: in vitro ADME. On the procedure: Approximately 10% of Compound A disappeared in 60 minutes.
Since Compound D was predominantly metabolized by CYP3A4, further experiments were conducted with Compound A in human hepatocytes in the presence and absence of CYP3A inhibitor ketoconazole. […] Parent disappearance data indicated a CYP3A involvement in the metabolism of Compound A (FIG. 1); however, the very low intrinsic clearance values make it difficult to provide an accurate determination of a percentage involvement of CYP3A via a substrate depletion method as described above.
Within the same experiments, the formation of Compound A metabolites in the absence of ketoconazole was observed (FIG. 2).

The subject of series [4] is recombinant CYP enzymes (CYP1A2, 2A6, 2B6, 2C8, 2C9, 2C19, 2D6, 2E1, 3A4 and 3A5). In words: Turnover in recombinant CYP enzymes. Conditions: 0.1 μM and 1 μM. Type of series: in vitro ADME. On the procedure:
To identify the enzymes responsible for P450 mediated metabolism, the turnover of Compound A was tested in recombinant CYP enzymes (CYP1A2, 2A6, 2B6, 2C8, 2C9, 2C19, 2D6, 2E1, 3A4 and 3A5) at 0.1 μM and 1 μM.

Series [5] can be described thus: Metabolite identification and relative abundance in human hepatocytes. The class given is in vitro ADME. Conditions: Compound A 10 μM in human hepatocytes (1 million cells/mL), 4 hours, 37° C. On the procedure:
Compound A was incubated at 10 μM in human hepatocytes (1 million cells/mL) for 4 hours at 37° C. under air with 5% CO2. The reaction was stopped by adding acetonitrile at a ratio of 3:1. Following centrifugation the supernatant was transferred to a clean tube and dried under a stream of N2. Following reconstitution in 30% acetonitrile, aliquots of the sample were injected onto a LC/UV/MS system for metabolite identification and profiling. This allowed assessment of the metabolites formed and an indication of their relative abundance (via UV, Table 6).

For series [6] the following is noted: as disclosed in WO 2009/148403; cited from earlier work.
In the next series the target is hERG ion channel (Homo sapiens, UniProt Q12809). Conditions: as disclosed in WO 2009/148403; cited from earlier work.
Another series addresses mGluR2 (Homo sapiens, UniProt Q14416). Conditions: as disclosed in WO 2009/148403; cited from earlier work.

T1 sequence (Q14416 19-872): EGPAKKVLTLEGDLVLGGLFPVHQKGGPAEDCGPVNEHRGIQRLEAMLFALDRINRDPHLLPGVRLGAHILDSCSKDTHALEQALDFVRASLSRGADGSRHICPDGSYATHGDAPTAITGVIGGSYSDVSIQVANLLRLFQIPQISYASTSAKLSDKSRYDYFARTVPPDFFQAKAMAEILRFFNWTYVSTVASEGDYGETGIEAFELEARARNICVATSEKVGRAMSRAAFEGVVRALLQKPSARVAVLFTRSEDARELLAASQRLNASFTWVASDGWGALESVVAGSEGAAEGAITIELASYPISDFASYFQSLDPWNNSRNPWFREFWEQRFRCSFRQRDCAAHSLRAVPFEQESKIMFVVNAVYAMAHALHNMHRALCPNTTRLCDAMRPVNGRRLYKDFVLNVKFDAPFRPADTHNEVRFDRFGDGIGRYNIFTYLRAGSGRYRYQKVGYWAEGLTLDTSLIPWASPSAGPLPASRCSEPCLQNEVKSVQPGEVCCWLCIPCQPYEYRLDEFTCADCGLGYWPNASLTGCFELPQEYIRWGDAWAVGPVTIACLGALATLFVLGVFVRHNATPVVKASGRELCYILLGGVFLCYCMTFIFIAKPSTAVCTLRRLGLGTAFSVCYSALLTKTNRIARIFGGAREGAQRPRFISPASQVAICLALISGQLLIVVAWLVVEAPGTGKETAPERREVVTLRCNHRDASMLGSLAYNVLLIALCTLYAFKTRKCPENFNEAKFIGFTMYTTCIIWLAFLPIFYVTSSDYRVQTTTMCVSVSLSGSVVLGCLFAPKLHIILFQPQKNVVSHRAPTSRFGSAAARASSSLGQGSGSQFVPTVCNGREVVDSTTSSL
Sequence of mGluR2 (Q14416 19-872): as above
Sequence of hERG ion channel (Q12809 whole entry): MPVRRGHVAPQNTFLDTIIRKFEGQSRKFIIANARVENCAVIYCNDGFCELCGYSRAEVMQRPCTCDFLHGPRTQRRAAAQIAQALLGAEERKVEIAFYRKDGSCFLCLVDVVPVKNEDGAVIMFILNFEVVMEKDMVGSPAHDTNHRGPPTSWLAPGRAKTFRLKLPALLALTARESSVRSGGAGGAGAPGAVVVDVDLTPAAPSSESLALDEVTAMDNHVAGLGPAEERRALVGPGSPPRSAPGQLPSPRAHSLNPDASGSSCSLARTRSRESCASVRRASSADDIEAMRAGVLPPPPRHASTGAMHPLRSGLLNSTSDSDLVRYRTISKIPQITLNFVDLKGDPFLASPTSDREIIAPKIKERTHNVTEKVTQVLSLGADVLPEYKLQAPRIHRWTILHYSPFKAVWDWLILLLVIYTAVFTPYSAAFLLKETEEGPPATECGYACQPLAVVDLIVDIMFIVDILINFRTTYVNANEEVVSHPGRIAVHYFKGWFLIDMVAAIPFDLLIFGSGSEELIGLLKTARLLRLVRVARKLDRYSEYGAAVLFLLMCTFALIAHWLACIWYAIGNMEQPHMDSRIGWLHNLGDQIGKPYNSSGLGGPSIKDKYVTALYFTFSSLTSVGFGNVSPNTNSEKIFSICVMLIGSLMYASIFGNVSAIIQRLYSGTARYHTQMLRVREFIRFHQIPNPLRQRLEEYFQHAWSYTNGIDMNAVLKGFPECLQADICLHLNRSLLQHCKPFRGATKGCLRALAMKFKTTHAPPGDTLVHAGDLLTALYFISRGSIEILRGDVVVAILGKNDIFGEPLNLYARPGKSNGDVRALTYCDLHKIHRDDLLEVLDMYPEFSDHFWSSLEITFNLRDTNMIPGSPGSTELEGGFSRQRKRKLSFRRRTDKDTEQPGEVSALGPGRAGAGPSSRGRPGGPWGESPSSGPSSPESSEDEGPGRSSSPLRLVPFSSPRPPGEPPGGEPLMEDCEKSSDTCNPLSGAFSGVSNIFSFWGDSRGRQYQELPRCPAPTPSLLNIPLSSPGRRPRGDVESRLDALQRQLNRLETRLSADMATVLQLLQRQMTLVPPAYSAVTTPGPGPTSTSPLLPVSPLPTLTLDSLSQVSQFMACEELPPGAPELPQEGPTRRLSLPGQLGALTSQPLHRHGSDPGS

`[2H]C1([2H])OC([2H])([2H])C([2H])([2H])N(C(=O)c2cc(-c3cc(Cl)c4c(c3)CN([C@@H](C)C3CC3)C4=O)on2)C1([2H])[2H]` [Compound A, (S)-7-chloro-2-(1-cyclopropylethyl)-5-(3-(morpholine-4-carbonyl-2,2,3,3,5,5,6,6-d8)isoxazol-5-yl)isoindolin-1-one]: in series [1], the 50% effective concentration (EC50) turned out to be 170 ± 9 nM. In series [2], this compound had an AUC of 1.29 µM·h, a clearance of 31.1 mL/min/kg and a half-life of 45.7 min. Further, the “Turnover in human hepatocytes” value in series [3] is listed as “very low turnover”. The Parent compound disappeared result in series [3] (60 minutes, absence of ketoconazole) is “Approximately 10%”. Moreover, in series [3] (with ketoconazole), the “Turnover in presence of CYP3A inhibitor” value is on record as “No turnover was observed”. Moreover, the “Turnover in recombinant CYP enzymes” value in series [4] is on record as “No significant turnover was observed”. In addition, in series [5], the “Relative UV abundance (%) Human” value is recorded as 94.2%.

Turning to `C[C@@H](C1CC1)N1Cc2cc(-c3cc(C(=O)N4CCOCC4)no3)cc(Cl)c2C1=O` [Compound D, (S)-7-chloro-2-(1-cyclopropylethyl)-5-(3-(morpholine-4-carbonyl)isoxazol-5-yl)isoindolin-1-one, reference compound], in series [1], the concentration for a half-maximal effect (EC50) was found to be 121 ± 56 nM. In series [2], this compound showed an AUC of 0.915 µM·h, a clearance of 44.3 mL/min/kg and a half-life of 48.8 min. In series [4], the “Turnover in recombinant CYP enzymes” value is recorded as “predominantly metabolised by CYP3A4”. Further, the Solubility entry in series [6] is listed as “favorable solubility”. For the same compound, the “Capacity to activate the hERG ion channel” value at hERG ion channel was “low capacity to activate the hERG ion channel”. Further, at mGluR2, the mGluR2 modulator activity result is on record as “highly active”.

As a reminder, the EC50 is the concentration at which the effect is half-maximal. High values mean a need for much substance, low ones an effect from little substance. Usually AUC stands for the area under the concentration-time curve, a measure of exposure. A low value points to less exposure. For orientation: clearance means the volume of plasma or blood freed of the substance per unit of time. In general, half-life refers to the time needed for the level to fall by half in the phase considered. Lower therefore signals fast loss.
